According to patent publication US9340590B2 (priority 2011, dated 2016):
Positions of bridges follow the written chain, without caps; N, C: chain ends. Non-standard residues stand in square brackets, D forms with d. Residues, ends and D or L forms follow the SMILES beside them. *: point of attachment. hCit = NC(=O)NCCCC[C@H](N)C(=O)O; Pent4ynoyl = C#CCCC(=O)*; Abu = CC[C@H](N)C(=O)O

Legend:
Experiment in all cases: cell-based
[1] = target: hNav1.7 (Homo sapiens, UniProt Q15858); assay type: cell-based; conditions: IonWorks Quattro, use-dependent block, hNav1.7; read-out: IWQ Use Nav1.7
[2] = target: hNav1.3 (Homo sapiens, UniProt Q9NY46); conditions: IonWorks Quattro, use-dependent block, hNav1.3; read-out: IWQ Use Nav1.3
[3] = target: hNav1.5 (Homo sapiens, UniProt Q14524); conditions: IonWorks Quattro, use-dependent block, hNav1.5; read-out: IWQ Use Nav1.5
hNav1.5, sequence (Q14524 whole entry, looked up): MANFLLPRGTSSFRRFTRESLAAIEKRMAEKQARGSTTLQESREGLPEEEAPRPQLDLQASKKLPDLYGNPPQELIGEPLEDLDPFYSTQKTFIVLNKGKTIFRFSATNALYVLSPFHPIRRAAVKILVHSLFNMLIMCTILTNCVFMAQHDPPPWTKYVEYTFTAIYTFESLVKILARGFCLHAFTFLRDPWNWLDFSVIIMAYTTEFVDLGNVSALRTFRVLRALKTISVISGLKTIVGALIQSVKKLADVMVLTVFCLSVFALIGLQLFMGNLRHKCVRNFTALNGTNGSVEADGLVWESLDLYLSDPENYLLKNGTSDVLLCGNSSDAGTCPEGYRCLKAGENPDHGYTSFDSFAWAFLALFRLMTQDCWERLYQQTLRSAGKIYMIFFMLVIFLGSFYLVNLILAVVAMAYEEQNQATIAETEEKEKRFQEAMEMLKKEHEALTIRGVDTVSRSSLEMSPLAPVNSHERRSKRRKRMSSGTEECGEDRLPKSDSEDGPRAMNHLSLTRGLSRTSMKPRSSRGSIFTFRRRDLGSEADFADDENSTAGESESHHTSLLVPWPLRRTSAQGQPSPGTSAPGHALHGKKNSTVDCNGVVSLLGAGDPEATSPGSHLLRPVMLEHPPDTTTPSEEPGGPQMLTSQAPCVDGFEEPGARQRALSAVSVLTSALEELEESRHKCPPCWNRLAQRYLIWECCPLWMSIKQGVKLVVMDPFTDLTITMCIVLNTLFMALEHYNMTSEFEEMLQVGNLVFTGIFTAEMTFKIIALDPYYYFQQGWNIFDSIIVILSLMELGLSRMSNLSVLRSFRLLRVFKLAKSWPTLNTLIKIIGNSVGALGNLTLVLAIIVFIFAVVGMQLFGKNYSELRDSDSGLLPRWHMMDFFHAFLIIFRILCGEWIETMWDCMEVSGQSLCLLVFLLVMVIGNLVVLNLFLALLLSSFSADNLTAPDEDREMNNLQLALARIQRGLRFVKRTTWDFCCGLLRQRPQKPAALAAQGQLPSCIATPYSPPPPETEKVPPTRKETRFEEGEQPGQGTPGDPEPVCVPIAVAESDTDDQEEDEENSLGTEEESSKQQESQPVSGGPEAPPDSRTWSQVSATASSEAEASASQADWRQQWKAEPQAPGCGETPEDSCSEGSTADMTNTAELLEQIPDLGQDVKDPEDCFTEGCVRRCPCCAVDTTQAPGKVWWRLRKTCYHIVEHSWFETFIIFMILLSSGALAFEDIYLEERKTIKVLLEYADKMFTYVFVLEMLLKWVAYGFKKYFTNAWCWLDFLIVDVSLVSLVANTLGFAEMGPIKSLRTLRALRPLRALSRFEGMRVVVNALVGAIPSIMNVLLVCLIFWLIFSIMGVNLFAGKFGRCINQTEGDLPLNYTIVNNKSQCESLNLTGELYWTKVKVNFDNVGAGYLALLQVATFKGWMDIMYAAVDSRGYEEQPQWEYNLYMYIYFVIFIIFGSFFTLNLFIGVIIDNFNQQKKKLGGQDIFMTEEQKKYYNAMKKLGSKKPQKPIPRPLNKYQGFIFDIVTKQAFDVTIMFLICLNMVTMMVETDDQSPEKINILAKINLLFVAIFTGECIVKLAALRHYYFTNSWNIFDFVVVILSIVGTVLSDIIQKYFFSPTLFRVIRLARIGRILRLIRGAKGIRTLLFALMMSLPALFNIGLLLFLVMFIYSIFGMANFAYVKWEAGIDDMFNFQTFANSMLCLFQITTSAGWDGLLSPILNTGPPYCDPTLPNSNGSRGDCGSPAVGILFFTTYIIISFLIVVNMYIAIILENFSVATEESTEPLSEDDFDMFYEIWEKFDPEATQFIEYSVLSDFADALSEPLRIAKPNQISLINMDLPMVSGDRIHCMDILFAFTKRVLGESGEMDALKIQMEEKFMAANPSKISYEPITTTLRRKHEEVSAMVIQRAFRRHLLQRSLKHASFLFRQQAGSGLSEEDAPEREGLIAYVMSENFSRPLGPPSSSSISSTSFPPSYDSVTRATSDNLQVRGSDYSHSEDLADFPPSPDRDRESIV

hNav1.7, sequence (Q15858 whole entry, looked up): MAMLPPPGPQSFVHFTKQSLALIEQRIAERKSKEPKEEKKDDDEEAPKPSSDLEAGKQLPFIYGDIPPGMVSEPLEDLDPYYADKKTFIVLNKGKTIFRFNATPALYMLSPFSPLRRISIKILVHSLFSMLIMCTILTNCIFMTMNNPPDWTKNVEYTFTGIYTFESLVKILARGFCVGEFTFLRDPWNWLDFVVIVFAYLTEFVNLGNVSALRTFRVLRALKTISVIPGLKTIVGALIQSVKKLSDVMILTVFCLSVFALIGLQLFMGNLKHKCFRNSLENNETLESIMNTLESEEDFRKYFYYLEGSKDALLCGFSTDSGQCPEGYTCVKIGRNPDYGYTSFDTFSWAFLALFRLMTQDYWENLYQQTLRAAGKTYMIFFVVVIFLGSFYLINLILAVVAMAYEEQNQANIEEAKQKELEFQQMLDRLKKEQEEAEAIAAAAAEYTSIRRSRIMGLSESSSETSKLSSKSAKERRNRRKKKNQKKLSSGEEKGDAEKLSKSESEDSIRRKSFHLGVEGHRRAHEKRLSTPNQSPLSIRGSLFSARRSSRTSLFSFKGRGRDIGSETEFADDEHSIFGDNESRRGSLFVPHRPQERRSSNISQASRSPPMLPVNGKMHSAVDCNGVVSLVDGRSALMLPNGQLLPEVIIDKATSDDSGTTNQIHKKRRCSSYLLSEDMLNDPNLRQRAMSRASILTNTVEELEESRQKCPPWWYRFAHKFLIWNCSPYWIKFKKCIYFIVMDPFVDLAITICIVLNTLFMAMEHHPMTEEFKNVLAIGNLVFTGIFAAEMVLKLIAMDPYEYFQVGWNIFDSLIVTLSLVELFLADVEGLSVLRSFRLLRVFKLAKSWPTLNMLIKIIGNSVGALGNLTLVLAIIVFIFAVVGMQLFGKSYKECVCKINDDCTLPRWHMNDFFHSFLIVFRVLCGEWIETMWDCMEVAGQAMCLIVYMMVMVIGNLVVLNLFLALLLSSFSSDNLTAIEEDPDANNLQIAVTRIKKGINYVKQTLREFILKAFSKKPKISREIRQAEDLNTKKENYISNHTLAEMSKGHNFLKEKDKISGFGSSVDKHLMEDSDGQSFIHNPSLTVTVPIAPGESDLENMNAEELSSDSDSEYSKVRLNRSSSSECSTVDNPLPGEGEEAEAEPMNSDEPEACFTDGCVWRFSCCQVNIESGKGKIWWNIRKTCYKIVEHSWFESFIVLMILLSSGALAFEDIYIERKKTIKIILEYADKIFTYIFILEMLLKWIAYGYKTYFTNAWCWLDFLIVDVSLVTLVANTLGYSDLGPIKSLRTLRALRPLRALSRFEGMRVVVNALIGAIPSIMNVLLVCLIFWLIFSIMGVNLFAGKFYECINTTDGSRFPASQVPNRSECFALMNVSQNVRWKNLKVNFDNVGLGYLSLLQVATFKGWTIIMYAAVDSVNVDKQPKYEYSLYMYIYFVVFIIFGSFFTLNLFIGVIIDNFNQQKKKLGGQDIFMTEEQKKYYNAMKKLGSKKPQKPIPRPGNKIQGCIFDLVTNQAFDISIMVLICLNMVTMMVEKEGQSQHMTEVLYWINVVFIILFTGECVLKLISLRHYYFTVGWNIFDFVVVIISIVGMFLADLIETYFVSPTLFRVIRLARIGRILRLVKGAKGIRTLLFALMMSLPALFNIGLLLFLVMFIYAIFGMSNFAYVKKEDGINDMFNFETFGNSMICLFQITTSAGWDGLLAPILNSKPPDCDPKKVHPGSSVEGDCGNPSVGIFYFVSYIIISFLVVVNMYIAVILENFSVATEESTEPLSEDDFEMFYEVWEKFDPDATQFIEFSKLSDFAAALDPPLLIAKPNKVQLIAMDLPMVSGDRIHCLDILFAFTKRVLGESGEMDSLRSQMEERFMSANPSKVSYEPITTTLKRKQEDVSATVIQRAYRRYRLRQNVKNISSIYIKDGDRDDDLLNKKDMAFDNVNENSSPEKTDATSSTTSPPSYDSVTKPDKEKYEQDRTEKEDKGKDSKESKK

CC[C@H](C)[C@@H]1NC(=O)[C@@H]2CSSC[C@@H]3NC(=O)[C@H](C(C)C)NC(=O)[C@H](CC(C)C)NC(=O)[C@H](CC(N)=O)NC(=O)[C@@H]4CCCN4C(=O)[C@H](CCCNC(=N)N)NC(=O)[C@H](CSSC[C@H](NC(=O)[C@@H](N)CC(=O)O)C(=O)N[C@@H](CC(C)C)C(=O)NCC(=O)N[C@@H](C)C(=O)N[C@@H](CCSC)C(=O)N[C@@H](CCCNC(=N)N)C(=O)N[C@@H](CCCCN)C(=O)N2)NC(=O)[C@H](CSSC[C@@H](C(=O)N[C@@H](CCCCN)C(=O)N[C@@H](Cc2ccc(O)cc2)C(=O)N[C@H](C(=O)N[C@@H](Cc2ccccc2)C(N)=O)C(C)C)NC(=O)[C@H](Cc2c[nH]c4ccccc24)NC(=O)[C@H](CCCCNC(N)=O)NC(=O)[C@H](Cc2c[nH]cn2)NC(=O)[C@H]([C@@H](C)O)NC(=O)[C@H](CCCNC(=N)N)NC(=O)[C@H](CO)NC3=O)NC(=O)[C@H](CCCCN)NC(=O)[C@H](CC(=O)O)NC(=O)[C@H](CC(N)=O)NC(=O)[C@H](CC(=O)O)NC(=O)[C@@H]2CCCN2C1=O [compound 749] (H-DCLGAMRKCIPDNDKCCRPNLVCSRTH[hCit]WCKYVF-NH2; disulfide 2-17, 9-23, 16-30)
IC50 [1]: 0.79 µM
IC50 [2]: 2.3 µM
IC50 [3]: 20.3 µM

CC[C@H](C)[C@@H]1NC(=O)[C@@H]2CSSC[C@@H]3NC(=O)[C@H](C(C)C)NC(=O)[C@H](CC(C)C)NC(=O)[C@H](CC(N)=O)NC(=O)[C@@H]4CCCN4C(=O)[C@H](CCCNC(=N)N)NC(=O)[C@H](CSSC[C@H](NC(=O)[C@@H](N)CC(=O)O)C(=O)N[C@@H](CC(C)C)C(=O)NCC(=O)NCC(=O)N[C@@H](C(C)C)C(=O)N[C@@H](CCCNC(=N)N)C(=O)N[C@@H](CCCCN)C(=O)N2)NC(=O)[C@H](CSSC[C@@H](C(=O)N[C@@H](CCCCN)C(=O)N[C@@H](Cc2ccc(O)cc2)C(=O)N[C@H](C(=O)N[C@@H](Cc2ccccc2)C(N)=O)C(C)C)NC(=O)[C@H](Cc2c[nH]c4ccccc24)NC(=O)[C@H](CCCCN)NC(=O)[C@H](Cc2c[nH]cn2)NC(=O)[C@H]([C@@H](C)O)NC(=O)[C@H](CCCNC(=N)N)NC(=O)[C@H](CO)NC3=O)NC(=O)[C@H](CCCCN)NC(=O)[C@H](CC(=O)O)NC(=O)[C@H](CC(N)=O)NC(=O)[C@H](CC(=O)O)NC(=O)[C@@H]2CCCN2C1=O [compound 751] (H-DCLGGVRKCIPDNDKCCRPNLVCSRTHKWCKYVF-NH2; disulfide 2-17, 9-23, 16-30)
IC50 [1]: > 5 µM
IC50 [2]: > 5 µM
IC50 [3]: 25.5 µM

CC[C@H](C)[C@@H]1NC(=O)CNC(=O)CNC(=O)[C@H](CC(C)C)NC(=O)[C@@H](NC(=O)[C@@H](N)CC(=O)O)CSSC[C@@H]2NC(=O)[C@@H]3CSSC[C@@H](C(=O)N[C@@H](CCCCN)C(=O)N[C@@H](Cc4ccc(O)cc4)C(=O)N[C@H](C(=O)N[C@@H](Cc4ccccc4)C(N)=O)C(C)C)NC(=O)[C@H](Cc4c[nH]c5ccccc45)NC(=O)[C@H](CCCCN)NC(=O)[C@H](Cc4c[nH]cn4)NC(=O)[C@H]([C@@H](C)O)NC(=O)[C@H](CCCNC(=N)N)NC(=O)[C@H](CO)NC(=O)[C@H](CSSC[C@H](NC(=O)[C@H](CCCCN)NC(=O)[C@H](CCCNC(=N)N)NC1=O)C(=O)N[C@@H]([C@@H](C)CC)C(=O)N1CCC[C@H]1C(=O)N[C@@H](CC(=O)O)C(=O)N[C@@H](CC(N)=O)C(=O)N[C@@H](CC(=O)O)C(=O)N[C@@H](CCCCN)C(=O)N3)NC(=O)[C@H](C(C)C)NC(=O)[C@H](CC(C)C)NC(=O)[C@H](CC(N)=O)NC(=O)[C@@H]1CCCN1C(=O)[C@H](CCCNC(=N)N)NC2=O [compound 752] (H-DCLGGIRKCIPDNDKCCRPNLVCSRTHKWCKYVF-NH2; disulfide 2-17, 9-23, 16-30)
IC50 [1]: > 5 µM
IC50 [2]: > 5 µM
IC50 [3]: 25.4 µM

CC(C)C[C@@H]1NC(=O)[C@@H](NC(=O)[C@@H](N)CC(=O)O)CSSC[C@@H]2NC(=O)[C@@H]3CSSC[C@@H](C(=O)N[C@@H](CCCCN)C(=O)N[C@@H](Cc4ccc(O)cc4)C(=O)N[C@H](C(=O)N[C@@H](Cc4ccccc4)C(N)=O)C(C)C)NC(=O)[C@H](Cc4c[nH]c5ccccc45)NC(=O)[C@H](CCCCN)NC(=O)[C@H](Cc4c[nH]cn4)NC(=O)[C@H]([C@@H](C)O)NC(=O)[C@H](CCCNC(=N)N)NC(=O)[C@H](CO)NC(=O)[C@H](CSSC[C@H](NC(=O)[C@H](CCCCN)NC(=O)[C@H](CCCNC(=N)N)NC(=O)[C@H](Cc4ccccc4)NC(=O)CNC(=O)CNC1=O)C(=O)N[C@@H](CCC(=O)O)C(=O)N1CCC[C@H]1C(=O)N[C@@H](CC(=O)O)C(=O)N[C@@H](CC(N)=O)C(=O)N[C@@H](CC(=O)O)C(=O)N[C@@H](CCCCN)C(=O)N3)NC(=O)[C@H](C(C)C)NC(=O)[C@H](CC(C)C)NC(=O)[C@H](CC(N)=O)NC(=O)[C@@H]1CCCN1C(=O)[C@H](CCCNC(=N)N)NC2=O [compound 754] (H-DCLGGFRKCEPDNDKCCRPNLVCSRTHKWCKYVF-NH2; disulfide 2-17, 9-23, 16-30)
IC50 [1]: 0.35 µM
IC50 [2]: 0.33 µM
IC50 [3]: 34.2 µM

CC[C@H](C)[C@@H]1NC(=O)[C@@H]2CSSC[C@@H]3NC(=O)[C@H](C(C)C)NC(=O)[C@H](CC(C)C)NC(=O)[C@H](CC(N)=O)NC(=O)[C@@H]4CCCN4C(=O)[C@H](CCCNC(=N)N)NC(=O)[C@H](CSSC[C@H](NC(=O)[C@@H](N)CC(=O)O)C(=O)N[C@@H](CC(C)C)C(=O)NCC(=O)NCC(=O)N[C@@H](Cc4ccccc4)C(=O)N[C@@H](CCCNC(=N)N)C(=O)N[C@@H](CCCCN)C(=O)N2)NC(=O)[C@H](CSSC[C@@H](C(=O)N[C@@H](CCCCN)C(=O)N[C@@H](Cc2ccc(O)cc2)C(=O)N[C@H](C(=O)N[C@@H](Cc2ccccc2)C(N)=O)C(C)C)NC(=O)[C@H](Cc2c[nH]c4ccccc24)NC(=O)[C@H](CCC(=O)O)NC(=O)[C@H](Cc2c[nH]cn2)NC(=O)[C@H]([C@@H](C)O)NC(=O)[C@H](CCCNC(=N)N)NC(=O)[C@H](CO)NC3=O)NC(=O)[C@H](CCCCN)NC(=O)[C@H](CC(=O)O)NC(=O)[C@H](CC(N)=O)NC(=O)[C@H](CC(=O)O)NC(=O)[C@@H]2CCCN2C1=O [compound 755] (H-DCLGGFRKCIPDNDKCCRPNLVCSRTHEWCKYVF-NH2; disulfide 2-17, 9-23, 16-30)
IC50 [1]: > 5 µM
IC50 [2]: > 5 µM
IC50 [3]: 15.3 µM

C#CCCC(=O)N[C@@H](CC(=O)O)C(=O)N[C@H]1CSSC[C@@H]2NC(=O)[C@@H]3CSSC[C@@H](C(=O)N[C@@H](CCCCN)C(=O)N[C@@H](Cc4ccc(O)cc4)C(=O)N[C@H](C(=O)N[C@@H](Cc4ccccc4)C(N)=O)C(C)C)NC(=O)[C@H](Cc4c[nH]c5ccccc45)NC(=O)[C@H](CCCNC(=N)N)NC(=O)[C@H](Cc4c[nH]cn4)NC(=O)[C@H]([C@@H](C)O)NC(=O)[C@H](CCCNC(=N)N)NC(=O)[C@H](CO)NC(=O)[C@H](CSSC[C@H](NC(=O)[C@H](CCCCN)NC(=O)[C@H](CCCNC(=N)N)NC(=O)[C@H](Cc4ccccc4)NC(=O)[C@H](C)NC(=O)CNC(=O)[C@H](CC(C)C)NC1=O)C(=O)N[C@@H]([C@@H](C)CC)C(=O)N1CCC[C@H]1C(=O)N[C@@H](CC(=O)O)C(=O)N[C@@H](CC)C(=O)N[C@@H](CC(=O)O)C(=O)N[C@@H](CCCCN)C(=O)N3)NC(=O)[C@H](C(C)C)NC(=O)[C@H](CC(C)C)NC(=O)[C@H](CC(N)=O)NC(=O)[C@@H]1CCCN1C(=O)[C@H](CCCNC(=N)N)NC2=O [compound 756] (Pent4ynoyl-DCLGAFRKCIPD[Abu]DKCCRPNLVCSRTHRWCKYVF-NH2; disulfide 2-17, 9-23, 16-30)
IC50 [1]: 0.18 µM
IC50 [2]: 0.26 µM
IC50 [3]: 44.4 µM
